Laboratory results published in US11912723B2, “KRAS modulators and uses thereof” (Quanta Therapeutics, Inc., priority 2022, dated 2024).

Key:
KRAS G12D/RAF1 = target: T1, KRAS G12D/RAF1 (Homo sapiens, UniProt P01116, G12D); assay: Protein-protein interaction (PPI) HTRF assay KRAS G12D/RAF1; type: binding; conditions: KRAS G12D/RAF1, GppNHp-loaded KRAS; 30 minutes pre-incubation
T1 construct: KRAS (1-169) proteins were expressed in E. coli at 18° C; His6-MBP (N, cleaved yes); made in house; host or cells: E. coli
Experimental: Biotinylated KRAS wt and KRAS G12DNV proteins were expressed and purified in conditions similar to those previously reported (Tran, et al., 2021) (Zhang, et al., 2020). Briefly, KRAS (1-169) proteins were expressed in E. coli at 18° C. with an upstream TEV cleavage site (ENLFYQS) followed an Avi tag sequence ([…]). KIRAS expression constructs contained both a His6 and maltose-binding protein (MBP) tags at the N-terminus for Ni-NTA column purification prior to overnight TEV cleavage and MBP column purification. The avi-tagged NRAS expression construct contained both a His6 tag and SUMO cleavage sige at the N-terminus for Ni-NTA column purification followed by His-ULP1 digestion overnight. All avi-tagged RAS proteins were dialyzed into buffer containing ATP, biotin, and BirA followed by purification over a second Ni-NTA column and then run over a size exclusion HiLoad™ 26/600 Superdex™ column in 20 mM HEPES, pH 7.5, 300 mM NaCl, 5 mM MgCl2, and 1 mM TCEP. Fractions containing the protein of interest were pooled, concentrated, and confirmed by intact mass spectrometry. To prepare ‘GTP’ loaded KRAS and NRAS, biotinylated KRAS or NRAS was nucleotide exchanged from GDP-bound protein to GppNHp-bound (Jena Biosciences, NU-401-50) protein in the presence of alkaline phosphatase and excess GppNHp as previously described and the resulting nucleotide content was confirmed by HPLC reverse phase analytical chromatography (Donohue, et al., 2019) (Tran, et al., 2021).
His-tagged RAF1 (52-131) was similarly expressed in E. coli at 18° C. overnight with an upstream TEV cleavage site. His-tagged RAF1 expression construct contained both a His6 and MBP tags at the N-terminus for Ni-NTA column purification followed by MBP-tagged TEV digestion overnight. RAF1 protein samples were further purified over a MBP column followed by a Ni-NTA column and a second MBP column. The fractions containing the protein of interest were pooled, concentrated, and further purified over a HiLoad™ 16/600 Superdex™ 75 pg size exclusion column into 20 mM HEPES, pH8.0, 200 mM NaCl, 5 mM TCEP.
When RAS proteins are in the active GTP-bound conformation, they bind the effector protein RAF1 at the N-terminus Ras-binding domain (RBD, residues 52-131) (Tran, et al., 2021). Homogenous time resolved fluorescence (HTRF) was used to monitor the interaction between wt or mutant KRAS and RAF1 or wt NRAS and RAFT. Compounds were assayed in the presence of KRAS G12D/V and RAF1 versus wt KRAS to assess activity against mutant and w.t. KRAS. Similarly, compounds were then assayed in the presence of w.t. NRAS and RAF1 to assess RAS isoform selectivity. In all assay formats, His-tagged RAF1 protein was incubated with the HTRF donor, anti-6His Tb Cryptate gold (Cisbio 61DB10RDF), and biotinylated RAS proteins were incubated with the HTRF acceptor, streptavidin-d2 (CisBio 610SADLA). The intensity of the fluorescence signal emitted is proportional to binding between the two proteins. The donor solution was prepared by mixing 16 nM His-tagged RAF1 in protein dilution buffer with 1:100 anti-6His Tb cryptate in PPI-Terbium detection buffer. 16 nM biotinylated RAS protein was diluted into protein dilution buffer (50 mM Tris-HCl pH 7.5, 150 mM NaCl, 0.1 mM MgCl2, 1 mM TCEP, 0.005% Tween20) and mixed with 1:2000 Streptavidin-d2 diluted in PPI-Terbium detection buffer (CisBio 61DB10RDF). 50× compound in DMSO was mixed with 16 nM KRAS-acceptor solution and incubated for 30 minutes at room temperature. After compound pre-incubation with KRAS, the RAF1 donor solution was added to the KRAS-acceptor solution and incubated for 1 hour at room temperature. The fluorescence signal emitted was monitored at 665 nm and 615 nm using an Envision multimode plate reader. The HTRF ratio (665/615) was calculated and normalized to 0% inhibition in the absence of compound and 100% inhibition in the presence of untagged RAF1 protein. […]

[1] = target: T2, GST-tagged KRAS G12D (2-169) (Homo sapiens, UniProt P01116, G12D); assay: Nucleotide exchange assay (NEA), HTRF of SOS-mediated GTP-DY-647P1 binding; type: biochemical; conditions: 5 nM GST-KRAS G12D, 20 nM SOScat, 150 nM GTP; compound 1 h at RT
T2 construct: GST-tagged KRAS^G12D (2-169, Reaction Biology, MSC-11-539); purchased Reaction Biology MSC-11-539 (KRAS G12D); MSC-11-502 (SOS1cat)
Outline: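 SOS1cat (564-1049)-driven loading of GTP-DY-647P1 onto KRAS G12D, read by HTRF with anti-GST Tb cryptate donor; compound preincubated with KRAS 1 h at RT. Final 5 nM KRAS, 20 nM SOScat, 150 nM GTP, pH 7.3 HEPES buffer; read up to 90 min at RT. Blanked to no-SOS1; 4-parameter fit of % inhibition.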

T2 sequence (P01116 2-169 isoform P01116-2 G12D): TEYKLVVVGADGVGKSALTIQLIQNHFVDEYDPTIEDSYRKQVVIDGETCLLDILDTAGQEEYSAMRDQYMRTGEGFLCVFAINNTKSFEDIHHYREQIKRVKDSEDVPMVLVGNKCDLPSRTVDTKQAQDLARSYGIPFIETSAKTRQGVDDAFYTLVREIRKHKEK
T1 sequence (P01116 1-169 isoform P01116-2 G12D): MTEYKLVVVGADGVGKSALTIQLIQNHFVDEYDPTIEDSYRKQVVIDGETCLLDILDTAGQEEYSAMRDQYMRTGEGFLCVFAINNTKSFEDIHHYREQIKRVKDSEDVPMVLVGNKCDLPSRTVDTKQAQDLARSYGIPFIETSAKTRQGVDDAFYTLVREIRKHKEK

| SMILES | IC50 (KRAS G12D/RAF1) [nM] | IC50 [1] [nM] |
| --- | --- | --- |
| Cc1noc(-c2cc3n(n2)CCCN(c2nc(OC[C@@]45CCCN4C[C@H](F)C5)nc4c2CN(C)[C@@]2(CCc5cccc(F)c52)C4)C3)n1 [Compound 73, 5-[5-[(7S)-7′-fluoro-2-[[(2R,8S)-2-fluoro-1,2,3,5,6,7-hexahydropyrrolizin-8-yl]methoxy]-6-methyl-spiro[5,8-dihydropyrido[4,3-d]pyrimidine-7,1′-indane]-4-yl]-4,6,7,8-tetrahydropyrazolo[1,5-a][1,4]diazepin-2-yl]-3-methyl-1,2,4-oxadiazole] | > 100000 | 10 to 100 |
| Cc1noc(-c2cc3n(n2)CCCN(c2nc(OC[C@@]45CCCN4C[C@H](F)C5)nc4c2CN(C)[C@@]2(CCCc5ccccc52)C4)C3)n1 [Compound 74, 5-[5-[(7S)-2-[[(2R,8S)-2-fluoro-1,2,3,5,6,7-hexahydropyrrolizin-8-yl]methoxy]-6-methyl-spiro[5,8-dihydropyrido[4,3-d]pyrimidine-7,1′-tetralin]-4-yl]-4,6,7,8-tetrahydropyrazolo[1,5-a][1,4]diazepin-2-yl]-3-methyl-1,2,4-oxadiazole] | > 100000 | 10 to 100 |
| CN(C)C(=O)c1nn2c(c1C#N)CN(c1nc(OC[C@@]34CCCN3C[C@H](F)C4)nc3c1CN(C)[C@@]1(CCc4cccc(F)c41)C3)CCC2 [Compound 76, 3-cyano-5-[(7S)-7′-fluoro-2-[[(2R,8S)-2-fluoro-1,2,3,5,6,7-hexahydropyrrolizin-8-yl]methoxy]-6-methyl-spiro[5,8-dihydropyrido[4,3-d]pyrimidine-7,1′-indane]-4-yl]-N,N-dimethyl-4,6,7,8-tetrahydropyrazolo[1,5-a][1,4]diazepine-2-carboxamide] | 10000 to 100000 | < 10 |
| CN(C)C(=O)c1nn2c(c1C#N)CN(c1nc(OC[C@@]34CCCN3C[C@H](F)C4)nc3c1CN(C)[C@@]1(CCCc4ccccc41)C3)CCC2 [Compound 77, 3-cyano-5-[(7S)-2-[[(2R,8S)-2-fluoro-1,2,3,5,6,7-hexahydropyrrolizin-8-yl]methoxy]-6-methyl-spiro[5,8-dihydropyrido[4,3-d]pyrimidine-7,1′-tetralin]-4-yl]-N,N-dimethyl-4,6,7,8-tetrahydropyrazolo[1,5-a][1,4]diazepine-2-carboxamide] | 10000 to 100000 | < 10 |
| CN1Cc2c(nc(OC[C@@]34CCCN3C[C@H](F)C4)nc2N2CCCn3nc(C(=O)O)c(Cl)c3C2)C[C@]12CCCc1ccccc12 [Compound 78, 3-chloro-5-[(7S)-2-[[(2R,8S)-2-fluoro-1,2,3,5,6,7-hexahydropyrrolizin-8-yl]methoxy]-6-methyl-spiro[5,8-dihydropyrido[4,3-d]pyrimidine-7,1′-tetralin]-4-yl]-4,6,7,8-tetrahydropyrazolo[1,5-a][1,4]diazepine-2-carboxylic acid] | 10000 to 100000 | < 10 |
| CN1Cc2c(nc(OCC3(CN4CCOCC4)CC3)nc2N2C[C@H]3CC[C@@H](C2)N3)C[C@]12CCCc1ccccc12 [Compound 80, 4-[[1-[[(7S)-6-methyl-4-[(1R,5S)-3,8-diazabicyclo[3.2.1]octan-3-yl]spiro[5,8-dihydropyrido[4,3-d]pyrimidine-7,1′-tetralin]-2-yl]oxymethyl]cyclopropyl]methyl]morpholine] | 10000 to 100000 | 10 to 100 |
| CN1Cc2c(nc(OC[C@@]34CCCN3C[C@H](F)C4)nc2N2CCCn3nc(-c4nc5ccccc5n4C)cc3C2)C[C@]12CCCc1ccccc12 [Compound 82, (7S)-2-[[(2R,8S)-2-fluoro-1,2,3,5,6,7-hexahydropyrrolizin-8-yl]methoxy]-6-methyl-4-[2-(1-methylbenzimidazol-2-yl)-4,6,7,8-tetrahydropyrazolo[1,5-a][1,4]diazepin-5-yl]spiro[5,8-dihydropyrido[4,3-d]pyrimidine-7,1′-tetralin]] | > 100000 | 10 to 100 |
| CN1Cc2c(nc(OC[C@@]34CCCN3C[C@H](F)C4)nc2N2CCCn3nc(-c4nc5c(F)cccc5n4C)cc3C2)C[C@]12CCCc1ccccc12 [Compound 83, (7S)-2-[[(2R,8S)-2-fluoro-1,2,3,5,6,7-hexahydropyrrolizin-8-yl]methoxy]-4-[2-(4-fluoro-1-methyl-benzimidazol-2-yl)-4,6,7,8-tetrahydropyrazolo[1,5-a][1,4]diazepin-5-yl]-6-methyl-spiro[5,8-dihydropyrido[4,3-d]pyrimidine-7,1′-tetralin]] | > 100000 | 10 to 100 |
| CN1Cc2c(nc(OC[C@@]34CCCN3C[C@H](F)C4)nc2N2C[C@H]3CC[C@@H](C2)[C@@H]3N)C[C@]12CCCc1ccccc12 [Compound 85, (1R,5S)-3-[(7S)-2-[[(2R,8S)-2-fluoro-1,2,3,5,6,7-hexahydropyrrolizin-8-yl]methoxy]-6-methyl-spiro[5,8-dihydropyrido[4,3-d]pyrimidine-7,1′-tetralin]-4-yl]-3-azabicyclo[3.2.1]octan-8-amine] | > 100000 | 1000 to 20000 |
| CN1Cc2c(nc(OCC34CCCN3CC(F)C4)nc2N2CC3CCC(C2)C3NC#N)CC12CCCc1ccccc12 [Compound 86, [(1R,5S)-3-[(7S)-2-[[(2R,8S)-2-fluoro-1,2,3,5,6,7-hexahydropyrrolizin-8-yl]methoxy]-6-methyl-spiro[5,8-dihydropyrido[4,3-d]pyrimidine-7,1′-tetralin]-4-yl]-3-azabicyclo[3.2.1]octan-8-yl]cyanamide] | > 100000 | < 10 |
| CN1Cc2c(nc(OC[C@@]34CCCN3C[C@H](F)C4)nc2N2CCCn3nc(-c4ccccn4)cc3C2)C[C@]12CCCc1ccccc12 [Compound 88, (7S)-2-[[(2R,8S)-2-fluoro-1,2,3,5,6,7-hexahydropyrrolizin-8-yl]methoxy]-6-methyl-4-[2-(2-pyridyl)-4,6,7,8-tetrahydropyrazolo[1,5-a][1,4]diazepin-5-yl]spiro[5,8-dihydropyrido[4,3-d]pyrimidine-7,1′-tetralin]] | > 100000 | 10 to 100 |
| COc1cccc(-c2cc3n(n2)CCCN(c2nc(OC[C@@]45CCCN4C[C@H](F)C5)nc4c2CN(C)[C@@]2(CCCc5ccccc52)C4)C3)n1 [Compound 89, (7S)-2-[[(2R,8S)-2-fluoro-1,2,3,5,6,7-hexahydropyrrolizin-8-yl]methoxy]-4-[2-(6-methoxy-2-pyridyl)-4,6,7,8-tetrahydropyrazolo[1,5-a][1,4]diazepin-5-yl]-6-methyl-spiro[5,8-dihydropyrido[4,3-d]pyrimidine-7,1′-tetralin]] | > 100000 | 100 to 1000 |
